Each substance was assayed on cells as in Example 1, FasAb-induced apoptosis (assay: effect of I9 fractions on low dose FasAb-induced apoptosis (Example 3)). Settings: 0.2 mg/ml simultaneously with 100 ng/ml FasAb of Euromedex origin; 24 hours of incubation.
Type: cell-based
Experimental: The effect induced by various constituents of this mixture, in particular of fractions DP 2, DP 3, DP 4, DP 5 and DP 7, was tested.
The polymer constituting the raw material of I9 was also tested, as was the product named KIK (hexasaccharide of type kappa-iota-kappa).
For these experiments, the procedure was carried out as in Example 1, simultaneously introducing, on the one hand, 0.2 mg/ml of each of the abovementioned fractions of I9 and, on the other hand, 100 ng/ml of FasAb of Euromedex origin.
After 24 hours of incubation, the findings summarized below were made.
iota-neocarradecaose [DP 5] was tested, and the “stimulatory effect on FasAb-induced apoptosis” value (“stimulatory effect” below) was “inactive”. iota-neocarraoctaose [DP 4] was tested, and the “stimulatory effect” value was “inactive”. iota-carrageenan was tested, and the “stimulatory effect” value was “active”. In the case of iota-neocarrahexaose [DP 3], the “stimulatory effect” value was “inactive”. For iota-neocarraletraose [DP 2], the “stimulatory effect” value was “inactive”. For oligo-iota-carrageenan [DP 7], the “stimulatory effect” value was 50%.
